According to patent publication US6465457B1 (priority 1991, dated 2002):

How the values were obtained:
Format in all cases: in vivo
[1] = test system: Venturia inaequalis (Apples); experiment: Foliar fungal disease test on plants: Venturia inaequalis (Apples); conditions: 100 ppm a.i. foliar spray or root drench (approx. 40 ppm in dry soil), one or two days before inoculation
[2] = test system: Plasmopara viticola (Vines); experiment: Foliar fungal disease test on plants: Plasmopara viticola (Vines); conditions: 100 ppm a.i. foliar spray or root drench (approx. 40 ppm in dry soil), one or two days before inoculation
[3] = test system: Erysiphe graminis tritici (Wheat); experiment: Foliar fungal disease test on plants: Erysiphe graminis tritici (Wheat); conditions: 100 ppm a.i. foliar spray or root drench (approx. 40 ppm in dry soil); plants inoculated 24 hours before treatment
[4] = test system: Phytophthora infestans (Tomatoes); conditions: 100 ppm a.i. foliar spray or root drench (approx. 40 ppm in dry soil), one or two days before inoculation
[5] = test system: Thanatephorus cucumeries (Rice); experiment: Foliar fungal disease test on plants: Thanatephorus cucumeries (Rice); conditions: 100 ppm a.i. foliar spray or root drench (approx. 40 ppm in dry soil), one or two days before inoculation
Septoria nodorum (Wheat) = experiment: Foliar fungal disease test on plants: Septoria nodorum (Wheat); conditions: 100 ppm a.i. foliar spray or root drench (approx. 40 ppm in dry soil), one or two days before inoculation
[6] = test system: Puccinia recondita (Wheat); experiment: Foliar fungal disease test on plants: Puccinia recondita (Wheat); conditions: 100 ppm a.i. foliar spray or root drench; plants inoculated with Puccinia recondita 48 hours before treatment
[7] = test system: Pyricularia oryzae (Rice); conditions: 100 ppm a.i. foliar spray or root drench (approx. 40 ppm in dry soil), one or two days before inoculation

Row | SMILES | POCO (Percentage of Control) disease level, Venturia inaequalis (Apples) [1] | POCO (Percentage of Control) disease level, Plasmopara viticola (Vines) [2] | POCO (Percentage of Control) disease level, Erysiphe graminis tritici (Wheat) [3] | POCO (Percentage of Control) disease level, Phytophthora infestans (Tomatoes) [4] | POCO (Percentage of Control) disease level, Thanatephorus cucumeries (Rice) [5] | POCO (Percentage of Control) disease level, Septoria nodorum (Wheat) (Septoria nodorum (Wheat)) | POCO (Percentage of Control) disease level, Puccinia recondita (Wheat) [6] | POCO (Percentage of Control) disease level, Pyricularia oryzae (Rice) [7]
1 | COC=C(C(=O)OC)c1ccccc1COC(=O)N(C)c1ccc(F)c([N+](=O)[O-])c1 [105 (2)] | 10 (10 = 5.1-10% disease present) | 0 (0 = 0% disease present) | 0 (0 = 0% disease present) | 0 (0 = 0% disease present) | 0 (0 = 0% disease present) | 90 (90 and 94 = 60.1-100% disease present) | 90+ (90 and 94 = 60.1-100% disease present) | 5 (5 = 3.1-5% disease present)
2 | CCN(C(=O)OCc1ccccc1C(=COC)C(=O)OC)c1ccc(F)c([N+](=O)[O-])c1 [105 (3)] | 0 (0 = 0% disease present) | 0 (0 = 0% disease present) | 90 (90 and 94 = 60.1-100% disease present) | 0 (0 = 0% disease present) | 20 (20 and 24 = 10.1-20% disease present) | 90 (90 and 94 = 60.1-100% disease present) | 90+ (90 and 94 = 60.1-100% disease present) | 60 (60 = 30.1-60% disease present)
